Laboratory results from patent US20100168050A1, “COMPOUNDS HAVING ANTIANGIOGENIC ACTIVITY” (MEDESTEA INTERNAZIONALE S.P.A, priority 2004, published 2010).

What was measured:
[1] = test system: HUVEC; assay: HUVEC apoptosis/necrosis, annexin V and propidium iodide staining; format: cell-based, human; conditions: ATP 3 mM
From the text: It is possible that the inhibition of the ATP-dependent pathway can induce the shift to another metabolic activity, as the glycolysis. […] The block of the HUVEC proliferation is further evidenced by the absence of cell apoptosis due to the treatment of the cells with the tested compounds, as reported in the FIG. 9 (the results are representative of 5 experiments). Only the treatment with ATP was able to induce about 4.5% PI positive, e.g. necrotic cells.
In the second series of experiments, we studied the differences in the apoptosis induction on human promyelocytic leukemia HL60 cells by ATP and by the inhibitors of the P2X7 receptors. Apoptotic cells and necrotic cells were analyzed by staining the cells with annexin V and propidium iodide (PI) (BD Pharmingen apoptosis kit, San Diego, Calif.). Briefly, an aliquot of 10^5 cells was incubated with annexin V-fluorescein isothiocyanate (FITC) and PI for 15 minutes at room temperature in the dark. The cells were immediately analyzed by FACScalibur (Becton Dickinson, Heidelberg, Germany). The emission/excitation wavelengths were 530/488 nm for annexin V FITC (FL1) and 640 nm/488 nm for PI (FL2). The necrotic cells were annexin V- and PI-positive, whereas apoptotic cells were annexin V-positive and PI-negative. The percentage of cells stained in each quadrant was quantified using the cellQuest software (BD Bioscience, San Josew, Calif.). […]

[2] = Body weight of RMA tumor-bearing mice during treatment; format: in vivo, mouse; conditions: during the different oATP treatments (0.5 or 1 mg sc, 1 mg ip)
Method: (§1) C57BL/6 female mice weighing about 18-20 g (8 week old) were used. The cells were washed twice with 0.9% NaCl and subcutaneously injected in each mouse in a volume of 100 microliters containing 7×10^4 cells. After 10 days from RMA cell injection, we treated the mice with oATP. Five groups of mice were studied (each of 7 mice): 1) controls, untreated; 2) locally (subcutaneously) (sc) treated with 0.5 mg of oATP; 3) locally (sc) treated with 1 mg oATP; 4) intraperitoneally treated with 1 mg oATP; 5) locally (sc) treated with 1 mg oATP for 3 days only.
(§2) The mice were observed until the 20th day from the tumor inoculation: they were weighed daily and the size of the tumor mass was daily measured.

[3] = test system: Human endothelial Cells (HUVEC); assay: Proliferation assay, HUVEC counted in Burker chamber; format: cell-based
Method: Human endothelial Cells (HUVEC) were isolated from umbilical vein, counted and seeded in a constant number in a 96-well plate. The cells were cultured as described (Jaffe, E. A. (1984) Biology of Endothelial Cells, Martinus Nighoff Publisher, Boston, USA, pp. 1-260), with or without (control) VEGF (50 ng/ml), in the presence of o-ATP (100 μM), and o-ATP+VEGF. After 24 hours cultivation with or without stimulus, the cells were washed and counted with an optical microscope using a Burker chamber. The results are reported in FIG. 1 and represent the mean±SD of 10 experiments.

[4] = test system: human umbilical vein endothelial cells (HUVEC); assay: HUVEC cell growing number, crystal violet absorbance at 595 nm; format: cell-based
Method: HUVEC were isolated from human umbilical cord by collagenase treatment and cultured in 1% gelatine-coated flasks using endotoxin-free Medium 199, containing 20% heat-inactivated fetal bovine serum, 1% bovine retinal-derived growth factor, 90 microg/ml heparin, 100 IU/ml penicillin and 100 microg/ml streptomycin. All experiments were carried out with HUVEc at the passage 1-4.
(§3) We used oATP at the concentration of 500 microM. HUVEC were treated with oATP over night, washed and fixed with glutaraldeide 2% in PBS. The cells were colored with crystal violet 0.1%, washed and dried. The dye solubilization was performed with acetic acid 10% and the absorbance was measured spectrophotometrically at 595 nm, using a microplate reader. The optical density was proportional to the number of cells.
as §3, with “In” for “We used oATP at”, “first series” for “concentration”, “experiments we studied the proliferation of human umbilical vein endothelial cells (HUVEC), obtained as previously described (1). The” for “500 microM.”, “each of the compounds for 36 hours,” for “oATP over night,”

[5] = test system: RMA cells (T-cell lymphoma); assay: Tumor growth after subcutaneous RMA cell injection in C57BL/6 mice; format: in vivo, mouse
From the text: RMA cells were derived from the Rausher leukemia virus-induced mouse T-cell lymphoma RBL-5 of B6 origin and maintained in RPMI 1640 medium, supplemented with fetal bovine serum, 1% penicillin/streptomycin and 1% glutamine (complete medium).
as §1, §2

[6] = test system: rat paw inflammation (CFA); conditions: WO 02/11737; cited from earlier work
[7] = test system: macrophage cell lines; conditions: Murgia et al. 1993; cited from earlier work
[8] = test system: microglia cells expressing P22/P2X7; conditions: Ferrari et al. 1997; cited from earlier work
[9] = test system: TNFalpha receptor 1 (TNFR1) on HUVEC; assay: Cytofluorometric assay of TNFalpha receptor expression on endothelial cells; format: cell-based, human
From the text: In addition, oATP was cytofluorometrically assayed for its ability to modulate the expression of TNFalpha receptors on endothelial cells. As reported in the FIG. 9a, the use of human TNFalpha (100 U/ml) improved the expression of the TNFalpha receptor 1 (TNFR1) on HUVEC. […] However, oATP was able to downregulate the TNFalpha-induced increased expression of TNFR1.

[10] = test system: RMA wild type (wt) murine lymphoma T cell line; assay: Cell apoptosis assay, annexin V/PI FACS; format: cell-based, mouse
Method: RMA wild type (wt) murine lymphoma T cell line (ATCC) was grown in RPMI 1640 supplemented with 10% heat inactivated fetal bovine serum, 100 U/ml penicillin, 100 microg/ml streptomycin.
Apoptosis was evaluated by FACS analysis, after staining with annexin-V FITC-conjugate to show the exposure of phosphatidyl serine on the external side of plasma membranes, and with propidium iodide (PI).
Two thousand RMA wt cells and lymphocytes were treated with or without different concentrations of oATP for 24 and 48 hours. The cells were then washed with PBS with Ca++ and Mg++ and stained.
Ten thousand cell/sample were analysed and the percentage of annexin V/PI positive cells was calculated with FCS-express software (DE NOVO Software).

[11] = test system: PBMC transendothelial migration through a HUVEC monolayer; assay: Transendothelial migration assay, PBMC through HUVEC monolayer; format: cell-based, human
Method: VEGF is a prototypic angiogenetic factor which induces endothelial cell proliferation, angiogenesis and capillary permeability. The latter is evidenced by the assay of transendothelial migration. It is known that VEGF increases transendothelial migration. Migration assay was performed using a Transwell double chamber system (5 micrometer polycarbonate membrane). HUVEC (5×10^4 cells/well) were seeded on the filter, in the presence or absence of TNFα (200 U/ml) and oATP 500 microM. Freshly obtained PMBC (peripheral blood mononuclear cells) by means of fycoll from buffy-coat were added in the upper compartment and allowed to migrate over night to the lower chamber which contained RPMI and 10% fetal calf serum. […] Data represent mean±SEM of 7 experiments.

[12] = test system: human promyelocytic leukemia HL60 cells; assay: HL60 apoptosis/necrosis, annexin V-FITC and PI staining; format: cell-based; conditions: oATP 300 microM versus PPADS 50 microM and KN62 10 microM
Method: In the second series of experiments, we studied the differences in the apoptosis induction on human promyelocytic leukemia HL60 cells by ATP and by the inhibitors of the P2X7 receptors. Apoptotic cells and necrotic cells were analyzed by staining the cells with annexin V and propidium iodide (PI) (BD Pharmingen apoptosis kit, San Diego, Calif.). Briefly, an aliquot of 10^5 cells was incubated with annexin V-fluorescein isothiocyanate (FITC) and PI for 15 minutes at room temperature in the dark. The cells were immediately analyzed by FACScalibur (Becton Dickinson, Heidelberg, Germany). The emission/excitation wavelengths were 530/488 nm for annexin V FITC (FL1) and 640 nm/488 nm for PI (FL2). The necrotic cells were annexin V- and PI-positive, whereas apoptotic cells were annexin V-positive and PI-negative. The percentage of cells stained in each quadrant was quantified using the cellQuest software (BD Bioscience, San Josew, Calif.). […] FIG. 11 summarizes the effects of the different treatments on the apoptosis/necrosis induction in the HL60 cells.

[13] = test system: lymphocytes from buffy-coat (PMBC), activated or not with PHA; assay: Cell apoptosis assay, annexin V/PI FACS; format: cell-based; conditions: oATP at high concentrations
Method: Lymphocytes were obtained from a buffy-coat by a fycoll gradient and depleted from monocytes by adherence. Lymphocytes were activated with Phytohaemoagglutinin A mitogen (PHA). Apoptosis was evaluated by FACS analysis, after staining with annexin-V FITC-conjugate to show the exposure of phosphatidyl serine on the external side of plasma membranes, and with propidium iodide (PI). Two thousand RMA wt cells and lymphocytes were treated with or without different concentrations of oATP for 24 and 48 hours. The cells were then washed with PBS with Ca++ and Mg++ and stained. Ten thousand cell/sample were analysed and the percentage of annexin V/PI positive cells was calculated with FCS-express software (DE NOVO Software).

[14] = test system: RMA wt cells; assay: Cell cycle analysis, PI staining, FACScan; format: cell-based, mouse
Method: RMA wt cells were treated with different concentrations of oATP for 24 and 48 hours, then fixed for at least four hours in ice-cold 70% ethanol. Cells were stained with a solution containing NP-40, RNase and PI and cell cycle distribution was detected using FACScan (Becton Dickinson, San Jose, Calif.) and analyzed with FCS-express software.
Cell cycle progression of RMA wt cell line treated with different concentrations of oATP for 24 or 48 hours.

[15] = group 3: locally (sc) 1 mg oATP

Nc1ncnc2c1ncn2[C@@H]1O[C@H](COP(=O)(O)OP(=O)(O)OP(=O)(O)O)[C@@H](O)[C@H]1O [ATP]
PI positive, e.g. necrotic cells [1]: about 4.5%

Nc1ncnc2c1ncn2[C@@H](C=O)O[C@@H](C=O)COP(=O)(O)OP(=O)(O)OP(=O)(O)O [oATP, adenosine-5′-triphosphate-2′,3′-dialdehyde]
body weights of the mice [2]: No significant differences | effect on HUVEC proliferative capacity compared with vasostatin ([3]; in vitro, HUVEC): higher than that induced by vasostatin | proliferative capacity of HUVEC ([3]; o-ATP 100 μM, 24 hours, even in the presence of a mitogen (VEGF 50 ng/ml)): significant reduction | cell growing number (HUVEC proliferation) ([4]; 36 hours, ATP 3 mM, oATP 300 microM, PPADS 50 microM, KN62 10 microM): maximal reduction | cell growing number (optical density) ([4]; oATP 500 microM over night): significantly reduced | consistency of the tumor mass obtained in 20 days [5, 15]: less solid than the tumor mass obtained in the other groups | tumor growth at 20 days from RMA cell injection [5, 15]: less evident than that observed in the other groups | tumor mass (arbitrary units) ([5]; group 3: locally (sc) 1 mg oATP, three days from the beginning of the treatment (until the 14th day)): did not significantly grow | tumor mass (arbitrary units) ([5]; group 5: locally (sc) 1 mg oATP for 3 days only, three days from the beginning of the treatment): did not significantly grow | tumor growth ([5]; local continuous treatment with 1 mg oATP): significantly slowing the tumor growth | effect on CFA-induced unilateral rat paw inflammation [6]: anti-inflammatory and analgesic effect | ATP-induced permeabilization of the plasma membrane [7]: able to block | IL-1β release (dependent on LPS) [8]: selectively inhibited | TNFalpha-induced increased expression of TNFR1 ([9]; human TNFalpha 100 U/ml plus oATP): downregulate | expression of TNFR1 on HUVEC ([9]; oATP alone): did not modify such expression | percentage of AnnexinV/PI positive cells ([10]; RMA wt, oATP 1 mM, 48 hours): strongly increases | apoptosis of RMA cells ([10]; oATP at high concentrations): able to induce apoptosis | non-stimulated PBMC transendothelial migration ([11]; addition of oATP, no TNFα): inhibited | TNFα-induced transendothelial migration of PBMC ([11]; oATP 500 microM, TNFα 200 U/ml, over night): significantly reduces | cell apoptosis induction on HL60 [12]: at better extent with respect to PPADS and KN62 | apoptosis of lymphocytes [13]: not of lymphocytes | % G0/G1 ([14]; oATP 0.1 μM, 24 h): 48% | % G2/M ([14]; oATP 0.1 μM, 24 h): 19% | % S ([14]; oATP 0.1 μM, 24 h): 24% | % subG1 ([14]; oATP 0.1 μM, 24 h): 9% | % G0/G1 ([14]; oATP 0.1 μM, 48 h): 50% | % G2/M ([14]; oATP 0.1 μM, 48 h): 22% | % S ([14]; oATP 0.1 μM, 48 h): 24% | % subG1 ([14]; oATP 0.1 μM, 48 h): 4% | % G0/G1 ([14]; oATP 1 μM, 24 h): 38% | % G2/M ([14]; oATP 1 μM, 24 h): 10% | % S ([14]; oATP 1 μM, 24 h): 29% | % subG1 ([14]; oATP 1 μM, 24 h): 23% | % G0/G1 ([14]; oATP 1 μM, 48 h): 52% | % G2/M ([14]; oATP 1 μM, 48 h): 26% | % S ([14]; oATP 1 μM, 48 h): 19% | % subG1 ([14]; oATP 1 μM, 48 h): 3% | % G0/G1 ([14]; oATP 20 μM, 48 h): 50% | % G2/M ([14]; oATP 20 μM, 48 h): 19% | % S ([14]; oATP 20 μM, 48 h): 23% | % subG1 ([14]; oATP 20 μM, 48 h): 8% | % G0/G1 ([14]; oATP 0.1 mM, 24 h): 44% | % G2/M ([14]; oATP 0.1 mM, 24 h): 5% | % S ([14]; oATP 0.1 mM, 24 h): 20% | % subG1 ([14]; oATP 0.1 mM, 24 h): 31% | % G0/G1 ([14]; oATP 0.1 mM, 48 h): 33% | % G2/M ([14]; oATP 0.1 mM, 48 h): 20% | % S ([14]; oATP 0.1 mM, 48 h): 33% | % subG1 ([14]; oATP 0.1 mM, 48 h): 14% | % G0/G1 ([14]; oATP 1 mM, 24 h): 16% | % G2/M ([14]; oATP 1 mM, 24 h): 3% | % S ([14]; oATP 1 mM, 24 h): 6% | % subG1 ([14]; oATP 1 mM, 24 h): 75% | % G0/G1 ([14]; oATP 1 mM, 48 h): 44% | % G2/M ([14]; oATP 1 mM, 48 h): 7% | % S ([14]; oATP 1 mM, 48 h): 25% | % subG1 ([14]; oATP 1 mM, 48 h): 24%
